Here are results for three compounds from US20110207751A1, “HETEROCYCLIC COMPOUNDS AND USES AS ANTICANCER AGENTS” (priority 2010, published 2011).

The term IC50 denotes the concentration that inhibits the measured activity by half.

Counter-ions that a name gives are not always drawn.

In assay [1] the test system is MKN45 human gastric-intestinal cancer xenograft. The assay can be described thus: In vivo antitumor efficacy, MKN45 xenograft. The arrangement: species or system BALB/c immunodeficient nude mice. To be noted: for Tumor inhibition rate %: by tumor weight. The protocol: To evaluate the in vivo anticancer efficacy of COMPOUND O, MKN45 human gastric-intestinal cancer xenograft models in immunodeficient nude mice was tested. All the mouse models are maintained in the Pharmacology Lab of ACEA Bio (Hangzhou) CO., Ltd. The BALB/c immunodeficient nude mice were purchased from Shanghai SLAC Laboratory Animal, certification number: SCXKA (Shanghai) 2007-0005. The mouse weight was 19±1 g. Only female mice were used in this study. The numbers of animals tested were as follow: 7 for each dose group, 7 for positive control group and 7 for negative control group.
Test Control. For negative control, each mouse was administered orally with the solvent only having the same volume and same concentration as those used in COMPOUND O test, 120 mg/kg once every other day (qod) for 18 days. […]
Preparation an Administration of Test Compounds. COMPOUND O was dissolved in 25% phospholipid (S75) and 75% polyvinylpyrrolidone (PL-PVP) then further diluted to 8 mg/ml in 0.9% NaCl aqueous solution. Different dosages of COMPOUND O between 120 mg/kg qod (once every other day) and 160 mg/kg q3d (once every 3 days) were used in the study.
Preparation of tumor cells for transplantation and determination of compound efficacy. To prepare the tumor cells for MKN45 human gastric-intestinal cancer xenograft model, the fast grown tumors were first removed from the transplanted tumor mice, the tumor tissues were dissected to 1-2 mm^3 in dimension. These micro-tumors were then subcutaneously injected into the auxiliary region (right-side) of each mouse. After the inoculated tumors grew to a certain size (60-80 mm^3) in the nude mice, the mice were randomized into different dosing groups and subjected to compound treatment. Between 2-3 weeks after the first dosing, mice were sacrificed and the transplanted tumors were removed from experimental mice. Each removed solid tumor was weighed; the tumor inhibition rate in each dosage group was calculated according to the formula:
Tumor inhibition rate %=(average weight of tumor in the negative control group−average weight of tumor in the compound treated group)/average weight of tumor in the negative control group×100 (1)
All used materials including animal food, animal cage, supporting materials and apparatus contacted by animals, were high-pressure sterilized. Nude mice were maintained in laminar flow shelves under SPF condition. After tumor transplantation, mouse weight and tumor size in each compound dosage group were dynamically monitored and plotted. The tumor size was determined by measuring the major axis (a) and minor axis (b) of the tumor, and tumor volume was calculated according to the formula: […]

Assay [2] relates to microtubule network in A549 cells. The assay can be described thus: Microtubule organization in A549 cells. The assay is classed as cell-based, human. To be noted: 20 hr treatment.
For assay [3], the system named is A549 human lung cancer cells. The assay can be described thus: Cell Death Detection ELISA, apoptosis. The assay is classed as cell-based. As to conditions: 37 nM, 24 hr, 48 hr, 72 hr. As for the experimental part: To test if COMPOUND O compound induces apoptosis in cancer cells, the A549 human lung cancer cells were treated with 37 nM COMPOUND O and 37 nM paclitaxel. Cell apoptosis and death detection was measured by Cell Death Detection ELISA kit (Roche Applied Sciences), according to the assay protocol from the kit. Briefly, 5000 cells were seeded into each well of the 96-well plate. […] Cells were harvested and lysed 24 hr, 48 hr or 72 hr post drug treatment. Twenty microliters of lysate were removed and transferred to streptavidin-coated microplate and then incubated with anti-histone-biotin and anti-DNA-POD antibodies for 2 hr followed by adding 2,2′-azinobis-3-ethylbenzthiazoline-sulphonic-acid substrate for color development. The plate was measured at an absorbance of 405 and 490 nm in a Beckman Multimode DTX880 plate reader.
In general terms: In an ELISA, binding on a coated surface is turned into a signal by an enzyme label.

Assay [4] has as its system SKOV3 cells (human ovarian cancer cell line). The assay can be described thus: Inhibition of cell proliferation, xCelligence cell index. Format: cell-based. To be noted: SK-OV-3, 72 hr post compound treatment, read-out: calculated IC50. From the text:
The biological activity of compounds disclosed herein was monitored and profiled using the Real-Time Cell Electronic Sensing (RT-CES®) system from ACEA Biosciences, Inc. The RT-CES system utilizes cell-substrate impedance technology to monitor cellular behavior inside tissue culture wells in a microtiter plate format. The technology features in the integration of molecular and cell biology with microelectronics and is based on the electronic detection of biological assay process. […]
For measurement of cell-substrate or cell-electrode impedance using RT-CES technology, microelectrodes having appropriate geometries are fabricated onto the bottom surfaces of microtiter plate or similar device, facing into the wells. […] When there are changes to the biological status of the cells analogue electronic readout signals are measured automatically and in real time, and are converted to digital signals for processing and for analysis. In a RT-CES system, a cell index (arbitrary representation of change in impedance) is automatically derived and provided based on measured electrode impedance values. […]
To quantify cell status based on the measured cell-electrode impedance, a parameter termed Cell Index is derived. Cell Index is a quantitative measure of the status of the cells in an electrode-containing well. […]

As for `COc1cc([C@@H]2c3cc4c(cc3[C@@H](O[C@@H]3O[C@@H]5CO[C@@H](C)O[C@H]5[C@H](O)[C@H]3O)[C@H]3COC(=O)[C@H]23)OCO4)cc(OC)c1O` [Etoposide, reference compound], in assay [1] (50 mg/kg ig × 6 q3d), the “TV inhibition rate % T/C” value came to 56.9%, the “Tumor volume (mm^3) End” value stood at 1164 ± 483 mm^3, the “Tumor volume (mm^3) Start” value is 69.46 ± 16 mm^3 and the “Tumor weight (g) x ± SD” value amounted to 1.024 ± 0.345 g. Further, in assay [1] (50 mg/kg ig × 6 q3d), the “Tumor inhibition rate %” value is on record as 48.4%.
As to `CC(=O)O[C@H]1C(=O)[C@@]2(C)[C@H]([C@H](OC(=O)c3ccccc3)[C@]3(O)C[C@H](OC(=O)[C@H](O)[C@@H](NC(=O)c4ccccc4)c4ccccc4)C(C)=C1C3(C)C)[C@]1(OC(C)=O)CO[C@@H]1C[C@@H]2O` [paclitaxel], the “effect on microtubule organization” value in assay [2] is reported as “microtubule polymerization with an increasing in the density of cellular microtubules”. The apoptotic signal entry in assay [3] is reported as “strong apoptotic signals (starting from 48 hr post drug treatment)”. For the same compound, the IC50 in assay [4] was 5.34 nM.
`CCc1ccc(Nc2nc(-c3c(C)nc4sccn34)cs2)cc1` [COMPOUND O, 2-(4-ethylphenyl)amino-4-(6-methylimidazo[2,1-b]thiazol-5-yl)-thiazole monohydrobromide]: in assay [2], the “effect on microtubule organization” value is on record as “findings similar to those of vincristine-induced microtubule changes”. Moreover, in assay [1] (120 mg/kg ig × 9 qod), the “TV inhibition rate % T/C” value is given as 44.1%, the “Tumor volume (mm^3) End” value turned out to be 905 ± 403 mm^3, the “Tumor volume (mm^3) Start” value worked out at 69.58 ± 11 mm^3 and the “Tumor weight (g) x ± SD” value is on record as 0.835 ± 0.41 g. For the same compound, the “Tumor inhibition rate %” value in assay [1] (120 mg/kg ig × 9 qod) is reported as 58.0%. Further, in assay [1] (160 mg/kg ig × 6 q3d), the “TV inhibition rate % T/C” value is recorded as 45.3%, the “Tumor volume (mm^3) End” value was 904 ± 347 mm^3, the “Tumor volume (mm^3) Start” value was 67.75 ± 25 mm^3 and the “Tumor weight (g) x ± SD” value stood at 0.881 ± 0.467 g. Also, in assay [1] (160 mg/kg ig × 6 q3d), the “Tumor inhibition rate %” value turned out to be 55.7%. The apoptotic signal result in assay [3] was “strong apoptotic signals (starting from 48 hr post drug treatment)”. Further, the IC50 in assay [4] was 5.47 nM.
